Source: ChEMBL document CHEMBL5096148, “Natural Products with Potential to Treat RNA Virus Pathogens Including SARS-CoV-2” (J Nat Prod, 2021)
In brackets after ≈: the same amount, converted by molar mass.

Experiments:
Ebolavirus [1] = assay: Antiviral activity against EBOV infected in Vero E6 cells assessed as reduction in virus titer incubated for 5 days by immunofocus assay; assay type: functional, organism-based; conditions: Orthoebolavirus, Vero C1008, 120 h
Ebolavirus [2] = assay: Antiviral activity against EBOV infected in HMVEC cells; assay type: functional, organism-based; conditions: Orthoebolavirus
SARS-CoV [3] = assay: Antiviral activity against SARS-CoV assessed as reduction in virus-induced cytopathic effect; assay type: functional, organism-based; conditions: Severe acute respiratory syndrome-related coronavirus
dengue virus type 2 [4] = assay: Antiviral activity against DENV-2 infected in Baby hamster BHK cells assessed as reduction in virus-induced cytopathic effect; assay type: functional, organism-based
Ebolavirus [5] = assay: Antiviral activity against EBOV; assay type: functional, organism-based; conditions: Orthoebolavirus
Marburgvirus [6] = assay: Antiviral activity against MARV infected in human A549 cells assessed as inhibition of viral growth; assay type: functional, organism-based; conditions: Orthomarburgvirus
Ebolavirus [7] = assay: Antiviral activity against EBOV infected in human A549 cells assessed as inhibition of viral growth; assay type: functional, organism-based; conditions: Orthoebolavirus
Ebolavirus [8] = assay: Antiviral activity against pseudo typed EBOV infected in human HEK293T cells assessed as inhibition of viral growth; assay type: functional, organism-based; conditions: Orthoebolavirus, HEK-293T
Marburgvirus [9] = assay: Antiviral activity against Marburg virus; assay type: functional, organism-based; conditions: Orthomarburgvirus
Ebolavirus [10] = assay: Antiviral activity against pseudo typed EBOV infected in human A549 cells assessed as inhibition of viral growth; assay type: functional, organism-based; conditions: Orthoebolavirus
SARS-CoV [11] = assay: Antiviral activity against SARS-Cov urbani by neutral red uptake analysis; assay type: functional, organism-based; conditions: Severe acute respiratory syndrome-related coronavirus
Ebolavirus [12] = assay: Antiviral activity against EBOV Kikwit by high-content image analysis; assay type: functional, organism-based; conditions: Orthoebolavirus
Sudan ebolavirus = assay: Antiviral activity against SUDV Boniface by high-content image analysis; assay type: functional
dengue virus type 2 [13] = assay: Antiviral activity against DENV2 new Guinea by neutral red uptake analysis; assay type: functional, organism-based
Marburgvirus [14] = assay: Antiviral activity against MARV musoke by high-content image analysis; assay type: functional, organism-based; conditions: Orthomarburgvirus
[15] = test system: Middle East respiratory syndrome-related coronavirus; assay: Antiviral activity against MERS-CoV jordan N3 by high-content image analysis; assay type: functional, organism-based
dengue virus type 2 [16] = assay: Antiviral activity against DENV2 infected in human A549 cells at 25 uM incubated for 24 hrs by plaque assay relative to control; assay type: functional

Work on `NC(=O)c1nc(F)cnc1O` yielded an IC50 (Ebolavirus [1]) of 67 µM and an IC90 (Ebolavirus [1]; time 5 day) of 110 µM.

`CCC(CC)COC(=O)[C@H](C)N[P@](=O)(OC[C@H]1O[C@@](C#N)(c2ccc3c(N)ncnn23)[C@H](O)[C@@H]1O)Oc1ccccc1` gave an EC50 (Ebolavirus [2]) of 60 nM.

Work on `O[C@H]1[C@H]2c3cc4c(cc3CN3CCC(=C[C@@H]1O)[C@H]23)OCO4` [LYCORINE] yielded an EC50 (SARS-CoV [3]) of 15.7 nM.

Compound `CN[C@@H]1[C@@H](O)[C@H](O[C@@H]2[C@@H](O)[C@H](O[C@H]3O[C@H]([C@H](C)O)[C@@H](O)[C@H](O)[C@H]3N)[C@@H](N)C[C@H]2N)OC[C@]1(C)O` has an EC50 (dengue virus type 2 [4]) of 3 µg/mL (≈ 6.04 µM).

`C=CCc1ccc(O)c(OC)c1` [EUGENOL] showed an EC50 (Ebolavirus [5]) of 1300 nM.

Compound `O=c1oc2c(O)c(O)cc3c(=O)oc4c(O)c(O)cc1c4c23` [ELLAGIC ACID] has an IC50 (Marburgvirus [6]) of 6.4 µM and an IC50 (Ebolavirus [7]) of 1400 nM.

`C#CN(CCCC1(C)N=N1)C(=O)[C@]12CCC(C)(C)C[C@H]1C1=CC[C@@H]3[C@@]4(C)CCC(=O)C(C)(C)[C@@H]4CC[C@@]3(C)[C@]1(C)CC2=O` was tested, and the IC50 (Ebolavirus [8]) was 467 nM and the IC50 (Marburgvirus [9]) was 5.52 µM.

For `C=C(C)O[C@@H]1[C@@H](OC(C)=O)[C@H](NC(=O)[C@]23CCC(C)(C)C[C@H]2C2=CC[C@@H]4[C@@]5(C)CCC(=O)C(C)(C)[C@@H]5CC[C@@]4(C)[C@]2(C)CC3=O)O[C@H](COC(C)=O)[C@@H]1OC(C)=O`, the IC50 (Ebolavirus [10]) was 59.2 nM and the IC50 (Marburgvirus [9]) was 2.29 µM.

Work on `Nc1ncnc2c([C@@H]3N[C@H](CO)[C@@H](O)[C@H]3O)c[nH]c12` yielded an EC50 (SARS-CoV [11]) of 57.7 µM, an EC50 (Ebolavirus [12]) of 11.8 µM and an EC50 (Sudan ebolavirus) of 3.4 µM. The EC50 (dengue virus type 2 [13]) was 32.8 µM, the EC50 (Marburgvirus [14]) was 4.4 µM and the EC50 [15] was 68.4 µM.

`C[C@H](CC[C@H](O)[C@](C)(O)CO)[C@H]1CC[C@@]2(C)C3=CC[C@H]4C(C)(C)C(=O)CC[C@]4(C)C3=CC[C@]12C` [GANODERMANONTRIOL] gave an Activity (dengue virus type 2 [16]) of 25%.
